From US6248765A, “Imidazole derivatives as histamine receptor H3 (ANT) agonists” (priority 1995, dated 2001)
Counter-ions that a name gives are not always drawn. Like-named read-outs stand apart in the source and are kept apart here. Values belong to the compound of their own block, whether it stands above or below them.

Tests used:
histamine H3 receptor [1] = target: T1, histamine H3 receptor (Rattus norvegicus, UniProt Q9QYN8); test: H3 agonist effect: inhibition of [3H]histamine release from synaptosomes of rat cerebral cortex; type: biochemical; conditions: for Emax: maximum inhibition relative to that of exogenous histamine or (R)-alpha-methylhistamine, read-out: Intrinsic activity; for EC50: rat cerebral cortex synaptosomes, inhibition of [3H]histamine release, read-out: EC50 (50% effective concentration of partial agonists)
T1 construct: synthesized from [^3 H]histidine by synaptosomes of rat cerebral cortex; from tissue; host or cells: rat cerebral cortex synaptosomes
T1 sequence (Q9QYN8 whole entry): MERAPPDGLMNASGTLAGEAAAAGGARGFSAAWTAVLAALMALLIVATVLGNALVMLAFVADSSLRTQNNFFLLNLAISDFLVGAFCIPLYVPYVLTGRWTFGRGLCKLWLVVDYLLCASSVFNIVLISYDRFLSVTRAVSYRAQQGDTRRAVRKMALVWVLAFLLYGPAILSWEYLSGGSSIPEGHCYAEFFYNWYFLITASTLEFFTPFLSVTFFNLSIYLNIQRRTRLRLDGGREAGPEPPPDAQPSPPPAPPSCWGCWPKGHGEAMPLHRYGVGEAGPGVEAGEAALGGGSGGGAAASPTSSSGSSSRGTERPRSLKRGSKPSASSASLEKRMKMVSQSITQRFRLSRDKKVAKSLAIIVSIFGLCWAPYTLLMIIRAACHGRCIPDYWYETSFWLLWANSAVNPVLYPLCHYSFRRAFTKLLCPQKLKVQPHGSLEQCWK
Experimental: The partial agonist effect of the compounds is evaluated by comparison of the maximum inhibition which they induce relative to the maximum inhibition induced by exogenous histamine or [R]-α-methylhistamine; the ratio of these two values giving the intrinsic activity of the compound with respect to the system.

plasma extravasation = plasma extravasation induced in rats under the influence of capsaicin (tissue level of Evans blue); type: in vivo; conditions: capsaicin 90 μg/kg i.v.
Excerpt: In contrast, we have discovered that measurement of the activity of the cerebral histaminic neurons in vivo, reflected by the level of tele-methylhistamine, a characteristic metabolite of released histamine, constitutes a more sensitive test of agonist activity. In effect, compounds displaying an intrinsic activity ≤25% in vitro cause, in vivo, a maximum or virtually maximum fall in the level of the tele-methylhistamine. Another sensitive test of H3 agonist activity, in this instance in relation to peripheral organs, consists in measuring the plasma extravasation induced in rats under the influence of capsaicin (90 μg/kg i.v.) and determined by measuring the tissue level of Evans blue, a dye administered at the same time as capsaicin, namely 5 min before infusion and sacrifice (Saria et al., Naunyn-Schmiedeberg's Arch. Pharmacol. 1983, 324: 212).

[2] = system: cerebral tele-methylhistamine; test: agonist effect in vivo: change in the level of cerebral tele-methylhistamine in mice; conditions: for Change in the level of cerebral tele-methylhistamine (relative to controls): H3 partial agonists, mice, 10 mg/kg p.o., 90 min
Experimental: The effect of a partial agonist in vivo is characterized by the fact that the maximum reduction in the level of tele-methylhistamine which it induces at high dose is smaller than the reduction induced by a reference H3 agonist.
These various compounds were administered at a dose of 10 mg/kg p.o. and the mice sacrificed 90 min later.

[3] = system: cerebral tele-methylhistamine; test: antagonist effect in vivo: change in the level of cerebral tele-methylhistamine in mice; conditions: Mus musculus, po, 1.5 h, read-out: Change in the level of cerebral tele-methylhistamine (relative to controls)
Experimental: Results are collated in Tables II and III below:
These various compounds were administered at a dose of 10 mg/kg p.o., and the mice sacrificed 90 min later.

histamine H3 receptor [4] = target: T1, histamine H3 receptor; test: H3 antagonist power: reversal of (R)-alpha-methylhistamine-induced inhibition of [3H]histamine release from synaptosomes of rat cerebral cortex; type: biochemical; conditions: read-out: Ki (apparent dissociation constant as histamine antagonist at the H3 receptors)
[5] = H3 antagonists, mice, 10 mg/kg p.o., 90 min

behaviour in vitro at the H3 receptor (histamine H3 receptor [1]; in vitro, in words): behaves essentially as an antagonist
Emax (histamine H3 receptor [1]; in vitro): ~20%
EC50 (histamine H3 receptor [1]): 100 nM
Compound: O=C(NC(c1ccccc1)c1ccccc1)OCCCc1c[nH]cn1 [Example 2, 3-(1H-Imidazol-4-yl)propyl-N-(diphenylmethyl) carbamate]
response in the capsaicin-induced plasma extravasation test compared with (R)-α-methylhistamine (plasma extravasation): a response akin to that of (R)-α-methylhistamine
Change in the level of cerebral tele-methylhistamine (relative to controls) [2]: -30%
response in the tele-methylhistamine test compared with (R)-α-methylhistamine ([2]; in vivo, in words): a response akin to that of (R)-α-methylhistamine

Emax (histamine H3 receptor [1]; in vitro): 20%
EC50 (histamine H3 receptor [1]): 130 nM
Compound: CC(C)CCOCCCc1c[nH]cn1 [Example 5, 3-(1H-Imidazol-4-yl)propyl 3-methylbutyl ether]
Change in the level of cerebral tele-methylhistamine (relative to controls) [2]: -52%

Emax (histamine H3 receptor [1]; in vitro): 40%
EC50 (histamine H3 receptor [1]): 100 nM
Compound: FC(F)(F)c1cccc(OCCCc2c[nH]cn2)c1 [Example 8, 4-[3-(3-Trifluoramethylphenoxy)propyl]-1H-imidazole]
Change in the level of cerebral tele-methylhistamine (relative to controls) [2]: -41%

Ki (histamine H3 receptor [4]): 45 nM
Compound: c1nc(CCCOc2ccc3c(c2)CCCC3)c[nH]1 [Example 21, 4-[3-(1,2,3,4-Tetrahydro-6-naphthyloxy)propyl]-1H-imidazole]
change in vivo at 10 mg/kg [3, 5]: 79%

Compound: CCCCCNC(=O)OCCCc1c[nH]cn1 [Example 30, 3-(1H-Imidazol-4-yl)propyl-N-pentyl carbamate]
change in vivo at 10 mg/kg [3, 5]: 67%

Compound: CCCN(CCC)C(=O)OCCCc1c[nH]cn1 [Example 39, 3-(1H-Imidazol-4-yl)propyl-N,N-dipropyl carbamate]
change in vivo at 10 mg/kg [3, 5]: 84%

Ki (histamine H3 receptor [4]): 22 nM
Compound: c1ccc2cc(COCCCc3c[nH]cn3)ccc2c1 [Example 56, 3-(1H-Imidazol-4-yl)propyl 2-naphthylmethyl ether]

Ki (histamine H3 receptor [4]): 0.5 nM
Compound: c1nc(CCCOCCC2CC3CCC2C3)c[nH]1 (centres unmarked) [Example 61, 2-(Bicyclo[2.2.1]hept-2-yl)ethyl 3-(1H-imidazol-4-yl)propyl ether]

Ki (histamine H3 receptor [4]): 16 nM
Compound: CCCCCCCOCCCc1c[nH]cn1 [Example 64, 3-(1H-Imidazol-4-yl)propyl heptyl ether]

Compound: CC(=O)c1ccc(OCCCc2c[nH]cn2)cc1 [Example 78, (4-(3-(1H-Imidazol-4-yl)propyloxy)phenyl)ethanone]
change in vivo at 10 mg/kg [3, 5]: 68%

Compound: O=C(c1ccc(OCCCc2c[nH]cn2)cc1)C1CC1 [Example 81, Cyclopropyl 4-(3-(1H-imidazol-4-yl)propyloxy)phenyl ketone]
change in vivo at 10 mg/kg [3]: 72%

Compound: CON=C(C)c1ccc(OCCCc2c[nH]cn2)cc1 [Example 93, (4-(3-(1H-Imidazol-4-yl)propyloxy)phenyl)ethanone O-methyloxime]
Ki (histamine H3 receptor [4]): 25 nM

functional class at the histamine H3 receptors (agonists) (histamine H3 receptor [1]; in words): agonists or partial agonists
Compound: CCC(C)(C)NC(=O)OCCCc1c[nH]cn1 [Example 110, 3-(1H-Imidazol-4-yl)propyl N-(2-methyl-2-butyl)carbamate]

functional class at the histamine H3 receptors (agonists) (histamine H3 receptor [1]; in words): agonists or partial agonists
Compound: CC(C)(C)CNC(=O)OCCCc1c[nH]cn1 [Example 111, N-(2,2-Dimethylpropyl)-3-(1H-imidazol-4-yl)propyl carbamate]
Change in the level of cerebral tele-methylhistamine (relative to controls) [2]: -34%

Compound: C=CCNC(=O)OCCCc1c[nH]cn1 [Example 112, 3-(1H-Imidazol-4-yl)propyl-N-(2-propenyl) carbamate]
change in vivo at 10 mg/kg [3, 5]: 98%

Compound: Cc1cc(C)cc(NC(=O)OCCCc2c[nH]cn2)c1 [Example 115, N-(3,5-Dimethylphenyl)-3-(1H-imidazol-4-yl)propyl carbamate]
Ki (histamine H3 receptor [4]): 44 nM

Compound: CCCC(=NO)c1ccc(OCCCc2c[nH]cn2)cc1 [Example 140, (4-(3-(1H-Imidazol-4-yl)propyloxy)phenyl)butanone oxime]
change in vivo at 10 mg/kg [3, 5]: 84%

Compound: Cc1nc(-c2ccc(OCCCc3c[nH]cn3)cc2)no1 [Example 149, 3-(1H-Imidazol-4-yl)propyl 4-(5-methyl-1,2,4-oxadiazol-3-yl)phenyl ether]
Ki (histamine H3 receptor [4]): 44 nM

Compound: CC(=O)c1cccc(SCCc2c[nH]cn2)c1.O=C(O)C(=O)O [Example 157, 4-[2-(3-Ethanoylphenylthio)ethyl]-1H-imidazole oxalate]
Change in the level of cerebral tele-methylhistamine (relative to controls) [2]: -38%

Compound: Cc1ccc(OCCc2c[nH]cn2)cc1 [Example 160, 4-[2-(4-Methylphenoxy)ethyl]-1H-imidazole oxalate]
change in vivo at 10 mg/kg [3, 5]: 95%

Ki (histamine H3 receptor [4]): 3 nM
Compound: CSc1ccc(OCCCc2c[nH]cn2)cc1 [Example 166, 4-[3-(4-Thiomethylphenoxy)propyl]-1H-imidazole oxalate]
